# Results reported in PMC9352670 (2022).
# Tests used:
# Experiment in all cases: microscale thermophoresis
# [1] = tested on: Dm-HS-10 (DNA, aptamer, HFNAP: side-chain on 5' nucleobase of each coding trinucleotide, positions 19,22,25,...,61 (codon key Figure 1B)) GAAAGCAGGACTGGAGATCCTTCGCATCGGCTTTCTCCCTGTCACCCCTGTTCCCCTTGACCGCAGACCGAACTAGAGCTT; conditions: 5 mM KCl, 1 mM MgCl2, 1 mM CaCl2 added; HBS-P+ buffer, 25 °C
# [2] = tested on: Dm-HS-1 TCA ∆ s.c. (DNA, aptamer, no side-chain at 61 (codon 15 TCA); others as HFNAP: fluorophenyl at 19; allylamine at 22, 25, 37; alcohol at 28, 34, 49; phenol at 31, 46; cyclopentyl at 40; cyclopropyl at 43, 58; imidazole at 52, 55) GAAAGCAGGACTGGAGATCGATTCTGGTGCTGTTGATCTCCGCCATTGTGCTCCTACCCTTCACAGACCGAACTAGAGCTT; conditions: 5 mM KCl, 1 mM MgCl2, 1 mM CaCl2 added to HBS-P+; HBS-P+ buffer, 25 °C
# [3] = tested on: Dm-HS-1 CCA ∆ s.c. (DNA, aptamer, as Dm-HS-1 but no side-chain at 43: fluorophenyl at 19; allylamine at 22,25,37; alcohol at 28,34,49; phenol at 31,46; cyclopentyl at 40; cyclopropyl at 58; imidazole at 52,55,61) GAAAGCAGGACTGGAGATCGATTCTGGTGCTGTTGATCTCCGCCATTGTGCTCCTACCCTTCACAGACCGAACTAGAGCTT; conditions: 5 mM KCl, 1 mM MgCl2, 1 mM CaCl2 added; HBS-P+ buffer, 25 °C
# [4] = tested on: Dm-HS-9 ∆ s.c. (DNA, aptamer, none (no side-chains)) GAAAGCAGGACTGGAGATCGATTATTGTGATTTTGATCTCCCCCATATCCCCTTCCCTACTCGCAGACCGAACTAGAGCTT; conditions: 5 mM KCl, 1 mM MgCl2, 1 mM CaCl2 added; HBS-P+ buffer, 25 °C
# [5] = tested on: Dm-CCS-2 (DNA, aptamer, HFNAP: side-chain on 5' nucleobase of each coding trinucleotide, positions 19,22,25,...,61 (codon key Figure 1B)) GAAAGCAGGACTGGAGATCGTTTATGGCCACCTCCTTGACAGTTGCCCTGCCTCCAGTCCTCCCAGACCGAACTAGAGCTT; conditions: 5 mM KCl, 1 mM MgCl2, 1 mM CaCl2 added; HBS-P+ buffer, 25 °C
# [6] = tested on: Dm-CCS-5 (DNA, aptamer, HFNAP: side-chain on 5' nucleobase of each coding trinucleotide, positions 19,22,25,...,61 (codon key Figure 1B)) GAAAGCAGGACTGGAGATTTCTACTATCTCCAGCCGTTCCACCACTGATGCCCTTAGTATCCTCAGACCGAACTAGAGCTT; conditions: 5 mM KCl, 1 mM MgCl2, 1 mM CaCl2 added; HBS-P+ buffer, 25 °C
# [7] = tested on: Dm-HS-6 (DNA, aptamer, HFNAP: side-chain on 5' nucleobase of each coding trinucleotide, positions 19,22,25,...,61 (codon key Figure 1B)) GAAAGCAGGACTGGAGATTGGTAGTAACTGCTGTCCTGCTAATCATGCCGTTCACGCTGACCTCAGACCGAACTAGAGCTT; conditions: 5 mM KCl, 1 mM MgCl2, 1 mM CaCl2 added; HBS-P+ buffer, 25 °C
# [8] = tested on: Dm-reference-based-random-after-selection-3 (DNA, other, HFNAP: side-chain on 5' nucleobase of each coding trinucleotide, positions 19,22,25,...,61 (codon key Figure 1B)) GAAAGCAGGACTGGAGATTGCTCTTGCCCGCCCTGTTGCTATCATCCCCCACCTTAGTACCCCCAGACCGAACTAGAGCTT; conditions: 5 mM KCl, 1 mM MgCl2, 1 mM CaCl2 added; HBS-P+ buffer, 25 °C
# [9] = tested on: Dm-HS-8 ∆ s.c. (DNA, aptamer, none (no side-chains)) GAAAGCAGGACTGGAGATCGATTGCAGTTACGTCTCCCCTGCCCACCTTATTGCCATTCATAACAGACCGAACTAGAGCTT; conditions: 5 mM KCl, 1 mM MgCl2, 1 mM CaCl2 added; HBS-P+ buffer, 25 °C
# [10] = tested on: Dm-HS-4 ∆ s.c. (DNA, aptamer, none (no side-chains)) GAAAGCAGGACTGGAGATCGATTCTGGTGCTGTTGATCTCCGCCATTGTGCTCCTACCCTTCGCAGACCGAACTAGAGCTT; conditions: 5 mM KCl, 1 mM MgCl2, 1 mM CaCl2 added; HBS-P+ buffer, 25 °C
# [11] = tested on: Dm-CCS-4 (DNA, aptamer, HFNAP: side-chain on 5' nucleobase of each coding trinucleotide, positions 19,22,25,...,61 (codon key Figure 1B)) GAAAGCAGGACTGGAGATCGCTGACAGCGATCCCGACTGTGATCTTGCTGCTGCCTCTCGCGCCAGACCGAACTAGAGCTT; conditions: 5 mM KCl, 1 mM MgCl2, 1 mM CaCl2 added; HBS-P+ buffer, 25 °C
# [12] = tested on: Dm-HS-10 ∆ s.c. (DNA, aptamer, none (no side-chains)) GAAAGCAGGACTGGAGATCCTTCGCATCGGCTTTCTCCCTGTCACCCCTGTTCCCCTTGACCGCAGACCGAACTAGAGCTT; conditions: 5 mM KCl, 1 mM MgCl2, 1 mM CaCl2 added; HBS-P+ buffer, 25 °C
# [13] = tested on: Dm-HS-1 TGT ∆ s.c. (DNA, aptamer, as Dm-HS-1 but no side-chain at 31: fluorophenyl at 19; allylamine at 22,25,37; alcohol at 28,34,49; phenol at 46; cyclopentyl at 40; cyclopropyl at 43,58; imidazole at 52,55,61) GAAAGCAGGACTGGAGATCGATTCTGGTGCTGTTGATCTCCGCCATTGTGCTCCTACCCTTCACAGACCGAACTAGAGCTT; conditions: 5 mM KCl, 1 mM MgCl2, 1 mM CaCl2 added; HBS-P+ buffer, 25 °C
# [14] = tested on: Dm-CCS-3 (DNA, aptamer, HFNAP: side-chain on 5' nucleobase of each coding trinucleotide, positions 19,22,25,...,61 (codon key Figure 1B)) GAAAGCAGGACTGGAGATTTACATCCCCTCCAGTCGTGCCCCCTACCTTGCTGCTCGTCATGGCAGACCGAACTAGAGCTT; conditions: 5 mM KCl, 1 mM MgCl2, 1 mM CaCl2 added; HBS-P+ buffer, 25 °C
# [15] = tested on: Dm-CCS-1 (DNA, aptamer, HFNAP: side-chain on 5' nucleobase of each coding trinucleotide, positions 19,22,25,...,61 (codon key Figure 1B)) GAAAGCAGGACTGGAGATCCTTAATGGCAGCTCCAGCCCTAACCCTGCTGCTGCCTCTGCTGTCAGACCGAACTAGAGCTT; conditions: 5 mM KCl, 1 mM MgCl2, 1 mM CaCl2 added; HBS-P+ buffer, 25 °C
smiles,measurement,setting,value
COc1cccc2c1C(=O)c1c(O)c3c(c(O)c1C2=O)C[C@@](O)(C(C)=O)C[C@@H]3O[C@H]1C[C@H](N)[C@H](O)[C@H](C)O1,Kd,[1],64.68 ± 3.9 nM
same,Kd,[2],10.1 ± 1.6 nM
same,Kd,[3],158.8 ± 14.2 nM
same,Kd ∆ side-chains,[4],5000 ± 140 nM
same,Kd,[5],16.6 ± 14.0 nM
same,Kd,[6],10.4 ± 1.5 nM
same,Kd,[7],26.86 ± 4.2 nM
same,Kd,[8],176500 ± 8000 nM
same,Kd ∆ side-chains,[9],4840 ± 260 nM
same,Kd ∆ side-chains,[10],1810 ± 57 nM
same,Kd,[11],8.5 ± 2.3 nM
same,Kd ∆ side-chains,[12],713 ± 28 nM
same,Kd,[13],6.7 ± 1.0 nM
same,Kd,[14],26.4 ± 6.9 nM
same,Kd,[15],16.7 ± 6.0 nM
